According to patent publication US11352396B2, “Antimicrobial peptides and methods of using same” (Zoetis Services LLC, priority 2017, dated 2022):

How the values were obtained:
[1] = test system: MSSP (Methicillin-Susceptible Staphylococcus pseudintermedius); assay: MIC against selected strains of MSSP; type: cell-based; design: MIC MSSP 49051 / MIC MSSP 81923 / MIC MSSP 84250 / Effect on MSSP 86000 / Effect on MSSP 72036 / Effect on MSSP 78032: unit not given beside the values; Effect on MSSP 71990 / Effect on MSSP 86001 / Effect on MSSP 72191 / Effect on MSSP 76986 / Effect on MSSP 77378 / Effect on MSSP 81923 / Effect on MSSP 84250 / Effect on MSSP 84658: unit: µM; details: for SP 49051: S. pseudintermedius 49051, Table 6; for Effect on MSSP 71990: strain 71990, Table 5; for Effect on MSSP 72036: strain 72036, Table 5; for Effect on MSSP 72191: strain 72191, Table 5; for Effect on MSSP 76986: strain 76986, Table 5; for Effect on MSSP 77378: strain 77378, Table 5; for Effect on MSSP 78032: strain 78032, Table 5; for Effect on MSSP 81923: strain 81923, Table 5; for Effect on MSSP 84250: strain 84250, Table 5; for Effect on MSSP 84658: strain 84658, Table 5; for Effect on MSSP 86000: strain 86000, Table 5; for Effect on MSSP 86001: strain 86001, Table 5
Summary of the method: (§1)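 MIC read by eye as the first well showing no growth after 18–20 h incubation. Cultures at 0.5 McFarland were diluted 1:250 in Mueller-Hinton broth and exposed to peptide over 50 μM–0.05 μM in the assay, per CLSI VET01-S2 microbroth method.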

[2] = test system: E. coli ATCC 25922; type: cell-based; details: E. coli 25922, Table 6
Summary of the method: (§2)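 Broth microdilution followed CLSI VET01-S2, with peptides serially diluted to in-assay concentrations of 50 μM to 0.05 μM. A 0.5 McFarland inoculum diluted 1:250 in Mueller-Hinton Broth was incubated with peptide for 18-20 hours. MIC was read visually as the first well without visible growth.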

[3] = test system: cRBC; type: cell-based, canine
Summary of the method: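 Percent lysis, measured by absorbance at 405 nm, used 1% Triton X-100 as full effect and phosphate buffer as zero. Peptides spanned 50 µM–0.05 µM and were held with plasma-depleted washed erythrocytes at 37 °C for 1 h.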

[4] = test system: Canine-derived epithelial keratinocyte (CPEK) cells; type: cell-based
Summary of the method: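 Viability was read by CellTiter-Glo luminescence after overnight exposure (37 °C, 5% CO2) of canine keratinocytes to a peptide range of 50–0.05 μM. Percent effect used phosphate buffer as the zero control and 0.1% Triton X-100 as the full-effect control.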

[5] = test system: MRSP (Methicillin-Resistant Staphylococcus pseudintermedius); assay: MIC against selected strains of MRSP; type: cell-based; design: key to MIC MRSP 72192 / MIC MRSP 76923 / MR 71994 / Mr 88493 / MR 72035 / MR 72192 / MR 76923 / MR 79882 / MR 80279 / MR 81926 / MR 86002 / MR 87665: MIC in μM (visual, first well with no growth); details: for MR 71994: MRSP strain 71994, Table 6; for MR 72035: MRSP strain 72035, Table 6; for MR 72192: MRSP strain 72192, Table 6; for MR 76923: MRSP strain 76923, Table 6; for MR 79882: MRSP strain 79882, Table 6; for MR 80279: MRSP strain 80279, Table 6; for MR 81926: MRSP strain 81926, Table 6; for MR 86002: MRSP strain 86002, Table 6; for MR 87665: MRSP strain 87665, Table 6; for Mr 88493: MRSP strain 88493, Table 6
Summary of the method: as §1

[6] = test system: S. aureus ATCC 29213; type: cell-based; design: key to SA 29213: MIC in μM (lowest conc. with no visible growth); details: S. aureus 29213, Table 6
Summary of the method: as §2

Row | Substance | SP 49051 [1] | Effect on MSSP 71990 [1] | Effect on MSSP 72036 [1] | Effect on MSSP 72191 [1] | Effect on MSSP 76986 [1] | Effect on MSSP 77378 [1] | Effect on MSSP 78032 [1] | Effect on MSSP 81923 [1] | Effect on MSSP 84250 [1] | Effect on MSSP 84658 [1] | Effect on MSSP 86000 [1] | Effect on MSSP 86001 [1] | EC 25922 [2] | cRBC (50 μM) [3] | CPEK (50 μM) [4] | MR 71994 [5] | MR 72035 [5] | MR 72192 [5] | MR 76923 [5] | MR 79882 [5] | further results
1 | 98 (KWCVRVCYRGICYRRCRD; Artificial Antimicrobial peptide) [compound 98] | 1.6 | 1.6 | 1.6 | 1.6 | 1.6 | 1.6 | 1.6 | 1.6 | 1.6 | 1.6 | 1.6 | 1.6 | 1.6 µM | 35.0 | 9.3 | 1.6 | 3.1 | 1.6 | 1.6 | 0.8 | MR 80279 [5]: 1.6; MR 81926 [5]: 1.6; MR 86002 [5]: 1.6; MR 87665 [5]: 1.6; Mr 88493 [5]: 1.6; SA 29213 [6]: 3.1
2 | 114 (KWCFRVCYRGICYRRCRR; Artificial Antimicrobial peptide) [compound 114] | 3.1 | 1.6 | 3.1 | 3.1 | 1.6 | 1.6 | 3.1 | 3.1 | 3.1 | 3.1 | 3.1 | 1.6 | 1.6 µM | 97.9 | 11.9 | 3.1 | 3.1 | 3.1 | 3.1 | 1.6 | MR 80279 [5]: 1.6; MR 81926 [5]: 3.1; MR 86002 [5]: 3.1; MR 87665 [5]: 3.1; Mr 88493 [5]: 3.1; SA 29213 [6]: 6.2
3 | 115 (GWCFRVCYRGICYRRCND; Artificial Antimicrobial peptide) [compound 115] | 1.6 | 1.6 | 1.6 | 1.6 | 1.6 | 0.8 | 1.6 | 1.6 | 1.6 | 1.6 | 1.6 | 1.6 | 0.8 µM | 94.6 | 5.1 | 1.6 | 1.6 | 1.6 | 1.6 | 0.8 | MR 80279 [5]: 1.6; MR 81926 [5]: 1.6; MR 86002 [5]: 1.6; MR 87665 [5]: 1.6; Mr 88493 [5]: 1.6; SA 29213 [6]: 3.1
4 | 112 (KWCFRVCYRGICYRRCKD; Artificial Antimicrobial peptide) [compound 112] | 1.6 | 1.6 | 1.6 | 1.6 | 1.6 | 0.8 | 1.6 | 1.6 | 1.6 | 1.6 | 1.6 | 1.6 | 1.6 µM | 61.0 | 14.2 | 1.6 | 1.6 | 1.6 | 1.6 | 0.8 | MR 80279 [5]: 0.8; MR 81926 [5]: 1.6; MR 86002 [5]: 1.6; MR 87665 [5]: 1.6; Mr 88493 [5]: 1.6; SA 29213 [6]: 3.1
5 | 97 (KRCFRVCYRGICYRRCRD; Artificial Antimicrobial peptide) [compound 97] | 3.1 | 3.1 | 3.1 | 3.1 | 1.6 | 1.6 | 3.1 | 3.1 | 3.1 | 3.1 | 1.6 | 1.6 | 3.1 µM | 31.2 | 12.9 | 1.6 | 3.1 | 3.1 | 1.6 | 1.6 | MR 80279 [5]: 3.1; MR 81926 [5]: 1.6; MR 86002 [5]: 3.1; MR 87665 [5]: 3.1; Mr 88493 [5]: 3.1; SA 29213 [6]: 6.2
6 | 110 (KWCFRVCYRGYCYRRCRD; Artificial Antimicrobial peptide) [compound 110] | 3.1 | 1.6 | 3.1 | 3.1 | 1.6 | 1.6 | 1.6 | 3.1 | 3.1 | 3.1 | 3.1 | 3.1 | 1.6 µM | 46.3 | 10.7 | 3.1 | 3.1 | 3.1 | 3.1 | 1.6 | MR 80279 [5]: 1.6; MR 81926 [5]: 3.1; MR 86002 [5]: 3.1; MR 87665 [5]: 3.1; Mr 88493 [5]: 3.1; SA 29213 [6]: 6.2
7 | 107 (KWCFRVCWRGICYRRCRD; Artificial Antimicrobial peptide) [compound 107] | 1.6 | 1.6 | 1.6 | 1.6 | 1.6 | 1.6 | 1.6 | 1.6 | 1.6 | 1.6 | 1.6 | 1.6 | 3.1 µM | 101.8 | 26.3 | 1.6 | 3.1 | 1.6 | 1.6 | 0.8 | MR 80279 [5]: 1.6; MR 81926 [5]: 1.6; MR 86002 [5]: 1.6; MR 87665 [5]: 1.6; Mr 88493 [5]: 1.6; SA 29213 [6]: 3.1
8 | 116 (KWCFYVCYRGICYRRCND; Artificial Antimicrobial peptide) [compound 116] | 1.6 | 1.6 | 1.6 | 1.6 | 1.6 | 1.6 | 1.6 | 1.6 | 1.6 | 1.6 | 1.6 | 1.6 | 0.8 µM | 87.0 | 16.0 | 1.6 | 1.6 | 1.6 | 1.6 | 1.6 | MR 80279 [5]: 1.6; MR 81926 [5]: 1.6; MR 86002 [5]: 3.1; MR 87665 [5]: 1.6; Mr 88493 [5]: 1.6; SA 29213 [6]: 6.2
